Patent publication US11174216B2, “Lipids that increase insulin sensitivity and methods of using the same” (Beth Israel Deaconess Medical Center, Inc., priority 2012, dated 2021)

Key:
[1] = tested on: isolated rat islets; experiment: Insulin release studies in rat islets; assay type: cell-based; conditions: 25 mM glucose in the media
Protocol: Ins1 cells (FIGS. 31A and 31B) or primary rat islet cells (FIG. 32A and FIG. 32B) were seeded in 24 well-plates [˜10^6 cells/well]. At confluence, cells were incubated with Low Serum [2.5%] and Low Glucose [2.5 mM] media for 12 hours. Next, cells were incubated with KRB buffer for 1 h and stimulated with glucose in the presence of 5-PAHSA (FIGS. 31a and 31B) or 9-PAHSA (FIG. 31B) for 45 min in KRB. At the end of the stimulation, 100 μL of media was collected and 10 μL was used to quantitate the amount of insulin released by ELISA. Treatment Conditions for FIGS. 31A, 31B and 32B were: • 5-PAHSA or 9-PAHSA [Stock]=20.0 mM [10.76 mg/mL Methanol] • A] 1 uM=0.3 uL/6 mL [Amount of methanol/mL=0.05 uL] • B] 5 uM=1.5 uL/6 mL [Amount of methanol/mL=0.25 uL] • C] 10 uM=3.0 uL/6 mL [Amount of methanol/mL=0.50 uL] • D] 20 uM=6.0 uL/6 mL [Amount of methanol/mL=1.00 uL] […]
Isolated rat islets were cultured overnight in RPMI 1640 medium containing 2.5 mM glucose and 2.5% fetal bovine serum supplemented with 100 IU/ml penicillin and 100 IU/ml streptomycin, 1 mM sodium pyruvate, and 10 mM HEPES (pH 7.4). […] At the end of the stimulation supernatant was collected and insulin released into the medium was quantified by ELISA as per manufacturer's protocol. The islets were lysed and protein content was measured and the amount of insulin released into the media was quantitated as ng/mL/μg of protein.

[2] = tested on: LPS-activated dendritic cells; experiment: LPS-induced maturation/activation of bone marrow-derived dendritic cells; assay type: cell-based, mouse
Protocol: Mouse bone marrow cells were flushed from the femurs and tibiae. The red blood cells were eliminated and the cells plated at a density of 1.0×10^6 cells/mL in RBMI complete medium containing 10% FCS plus 20 ng/ml GM-CSF. The medium was replaced on day 4, and the cells were harvested on day 6 to obtain immature DCs. To obtain mature DCs, LPS was added to the cultures at a final concentration of 100 ng/mL on day 6, and the cells were cultured for an additional 24 h, as previously described by Macia, L., et al. Impairment of dendritic cell functionality and steady-state number in obese mice. J Immunol 177, 5997-6006 (2006), which is incorporated by reference in its entirety. […] The activation status of the BMDCs was evaluated by measuring the expression of MHCII and co-stimulatory molecules using Flow Cytometry and by the production of pro-inflammatory cytokines (IL-6, TNF, IL-12 and IL-1β) which was assessed by ELISA. […]
The immature dendritic cells obtained in the day 6 were maturated with LPS in the presence of different concentrations of 9-PAHSA varying between 100 ng/mL to 20 ug/mL. The cells were maturated for 24 h and the maturation status analyzed by cytokine production and co-stimulatory molecules expression.
The cells were analyzed by Multicolor Flow cytometry. […] The cells were analyzed with an LSR II flow cytometer (BD) and FlowJo software. […]

[3] = tested on: FAHFA hydrolysis activity in pancreas membrane lysate; experiment: FAHFA hydrolysis activity assay, pancreas membrane lysate; conditions: 1 mg/ml protein, 100 uM 9-PAHSA, 30 min, room temperature

Compound	glucose-stimulated insulin secretion [1]	LPS-induced dendritic cell activation (expression of MHCII, CD40, CD80, CD86) ([2]; 100 ng/mL LPS, 24 h, flow cytometry)	IL-12 production ([2]; LPS-activated dendritic cells, ELISA)	FAHFA hydrolysis activity, pancreas membrane versus liver membrane [3]
CCCCCCCCCCCCCCCC(=O)OC(CCCCCCCCCCCCC)CCCC(=O)O (stereo not shown) [5-PAHSA]	potentiates glucose-stimulated insulin secretion			
CCCCCCCCCCCCCCCC(=O)OC(CCCCCCCCC)CCCCCCCC(=O)O (stereo not shown) [9-PAHSA, palmitoyl-9-hydroxystearic acid]		prevents LPS-induced dendritic cell activation in a dose dependent manner	blocks IL-12 production	~10 fold
